# Laboratory results: PubChem BioAssay AID1259407 (Chemical Carcinogenesis Research Information System (CCRIS), 2018)
# The source made the active and inactive calls. How the calls were made is not given here.
# Test system: CCRIS mutagenicity, Ames/micronucleus/aberration tests
# Assay: CCRIS mutagenicity studies
# [1] = Test System: AMES SALMONELLA TYPHIMURIUM, Strain/Indicator: TA98, Metabolic Activation: NONE, Method: STANDARD PLATE
# [2] = Test System: AMES SALMONELLA TYPHIMURIUM, Strain/Indicator: TA100, Metabolic Activation: NONE, Method: STANDARD PLATE
# [3] = Test System: AMES SALMONELLA TYPHIMURIUM, Strain/Indicator: TA100, Metabolic Activation: NONE, Method: PREINCUBATION
# [4] = Test System: AMES SALMONELLA TYPHIMURIUM, Strain/Indicator: TA100, Metabolic Activation: RAT, LIVER, S-9, AROCLOR 1254, Method: STANDARD PLATE
# [5] = Test System: AMES SALMONELLA TYPHIMURIUM, Strain/Indicator: TA1535, Metabolic Activation: NONE, Method: STANDARD PLATE
# [6] = Test System: AMES SALMONELLA TYPHIMURIUM, Strain/Indicator: TA1537, Metabolic Activation: NONE, Method: STANDARD PLATE
structure (smiles),measurement,setting,value
C1=Cc2c3c1cccc3cc1ccc3ccccc3c21,mutagenic call,"Test System: AMES SALMONELLA TYPHIMURIUM, Strain/Indicator: TA98, Metabolic Activation: HUMAN, LIVER, MICROSOMES, Method: STANDARD PLATE",active; positive
same,mutagenic call,"Test System: AMES SALMONELLA TYPHIMURIUM, Strain/Indicator: TA98, Metabolic Activation: RAT, LIVER, HEPATOCYTES, Method: PREINCUBATION",active; positive
same,mutagenic call,"Test System: AMES SALMONELLA TYPHIMURIUM, Strain/Indicator: TA98, Metabolic Activation: RAT, LIVER, MICROSOMES, AROCLOR 1254, Method: STANDARD PLATE",active; positive
same,mutagenic call,"Test System: AMES SALMONELLA TYPHIMURIUM, Strain/Indicator: TA98, Metabolic Activation: RAT, LIVER, MICROSOMES, Method: STANDARD PLATE",active; positive
same,mutagenic call,"Test System: AMES SALMONELLA TYPHIMURIUM, Strain/Indicator: TA98, Metabolic Activation: RAT, LUNG, MICROSOMES, AROCLOR 1254, Method: STANDARD PLATE",active; positive
same,mutagenic call,"Test System: AMES SALMONELLA TYPHIMURIUM, Strain/Indicator: TA98, Metabolic Activation: RAT, LUNG, MICROSOMES, Method: STANDARD PLATE",inactive; negative
same,mutagenic call,"Test System: CHINESE HAMSTER OVARY, Strain/Indicator: V-79/6-THIOGUANINE, Metabolic Activation: RAT, LIVER, S-9, AROCLOR 1254, Method: FLASK ASSAY",active; positive
same,mutagenic call,"Test System: CHINESE HAMSTER OVARY, Strain/Indicator: V-79/6-THIOGUANINE, Metabolic Activation: SHE CELL MEDIATED, Method: FLASK ASSAY",active; positive
same,mutagenic call,"Test System: CHINESE HAMSTER V-79, Strain/Indicator: V-79/6-THIOGUANINE, Metabolic Activation: RAT, LIVER, S-9, AROCLOR 1254, Method: SUSPENSION/PLATE",active; positive
same,mutagenic call,"Test System: CHINESE HAMSTER V-79, Strain/Indicator: V-79/6-THIOGUANINE, Metabolic Activation: SHE CELL-MEDIATED, Method: SUSPENSION/PLATE",active; positive
same,mutagenic call,"Test System: MOUSE LYMPHOMA, Strain/Indicator: L5178Y (TK+/TK-), Metabolic Activation: RAT, LIVER, S-9, AROCLOR 1254, Method: SUSPENSION/PLATE",active; positive
same,mutagenic call,"Test System: UDS RAT HEPATOCYTES, Strain/Indicator: THY INCORP, Metabolic Activation: NONE, Method: LIQUID SCINTILLATION COUNTING",active; positive
ClCc1c2ccccc2c2ccc3cccc4ccc1c2c43,mutagenic call,[1],inactive; negative
same,mutagenic call,[2],inactive; negative
O=C(Nc1ccc(F)cc1)c1csc([N+](=O)[O-])c1,mutagenic call,[1],active; positive
same,mutagenic call,[2],active; positive
CC(=O)N[C@@H](CSC(Cl)=C(Cl)Cl)C(=O)O,mutagenic call,[3],active; positive
same,mutagenic call,"Test System: AMES SALMONELLA TYPHIMURIUM, Strain/Indicator: TA100, Metabolic Activation: RAT, KIDNEY, CYTOSOL, Method: PREINCUBATION",active; positive
O=S(=O)(Nc1cccc(Cl)c1)c1cccc2cccnc12,mutagenic call,[1],inactive; negative
same,mutagenic call,"Test System: AMES SALMONELLA TYPHIMURIUM, Strain/Indicator: TA98, Metabolic Activation: RAT, LIVER, S-9, AROCLOR 1254, Method: STANDARD PLATE",inactive; negative
same,mutagenic call,[2],inactive; negative
same,mutagenic call,[4],inactive; negative
same,mutagenic call,[5],inactive; negative
same,mutagenic call,"Test System: AMES SALMONELLA TYPHIMURIUM, Strain/Indicator: TA1535, Metabolic Activation: RAT, LIVER, S-9, AROCLOR 1254, Method: STANDARD PLATE",inactive; negative
same,mutagenic call,[6],inactive; negative
same,mutagenic call,"Test System: AMES SALMONELLA TYPHIMURIUM, Strain/Indicator: TA1537, Metabolic Activation: RAT, LIVER, S-9, AROCLOR 1254, Method: STANDARD PLATE",inactive; negative
CC(=O)Nc1snc2c(Cl)cc(Cl)cc12,mutagenic call,[1],inactive; negative
same,mutagenic call,"Test System: AMES SALMONELLA TYPHIMURIUM, Strain/Indicator: TA98, Metabolic Activation: S-9, Method: STANDARD PLATE",inactive; negative
same,mutagenic call,[2],inactive; negative
same,mutagenic call,"Test System: AMES SALMONELLA TYPHIMURIUM, Strain/Indicator: TA100, Metabolic Activation: S-9, Method: STANDARD PLATE",inactive; negative
same,mutagenic call,[5],inactive; negative
same,mutagenic call,"Test System: AMES SALMONELLA TYPHIMURIUM, Strain/Indicator: TA1535, Metabolic Activation: S-9, Method: STANDARD PLATE",inactive; negative
same,mutagenic call,[6],inactive; negative
same,mutagenic call,"Test System: AMES SALMONELLA TYPHIMURIUM, Strain/Indicator: TA1537, Metabolic Activation: S-9, Method: STANDARD PLATE",inactive; negative
C1CSCN1,mutagenic call,[3],active; positive
Oc1cc2ccc3cccc4cc5c(c1-c1ccccc1-5)c2c34,mutagenic call,[4],inactive; negative
CC1=C(Cl)C(=O)OC1O (stereo not given),mutagenic call,[2],active; positive
same,mutagenic call,"Test System: Ames Salmonella typhimurium, Strain/Indicator: TA100, Metabolic Activation: None, Method: Plate incorporation",active; positive
same,mutagenic call,"Test System: Ames Salmonella typhimurium, Strain/Indicator: TA104, Metabolic Activation: None, Method: Plate incorporation",active; positive
same,mutagenic call,"Test System: UDS RAT HEPATOCYTES, Strain/Indicator: THYMIDINE INCORPORATION, Metabolic Activation: NONE, Method: AUTORADIOGRAPHY",active; positive
